Test results from US10617557B2, “Combined drug delivery methods and apparatus” (ForSight Vision4, Inc., priority 2010, dated 2020).
≈ marks a conversion by molar mass, not a printed value. Like-named read-outs stand apart in the source and are kept apart here.

What was measured:
[1] = vitreous, input of the calculation; cited from earlier work
[2] = representative of a small molecule, input of the calculation; cited from earlier work
COX = details: cited from earlier work
[3] = Calculated release of COX inhibitors from the therapeutic device into the vitreous; design: species or system human; details: from half-life 3 hr
[4] = tested on: VEGF-induced cell proliferation, or receptor binding; details: depending on the target assay; cited from earlier work
[5] = cited from earlier work
[6] = human eye; listed as ranibizumab; cited from earlier work
[7] = Diffusion coefficients of proteins and small molecules; type: physicochemical; details: simulation parameter, Tables 4A and 4E
Source text: If the reservoir solution is aqueous or has a viscosity similar to water, the value for the diffusion coefficient of the therapeutic agent (TA) in water at the temperature of interest may be used.
Small molecules have a diffusion coefficient similar to fluorescein (MW=330, D=4.8 to 6 e-6 cm^2/s from Stay, M S et al. Pharm Res 2003, 20(1), pp. 96-102). For example, the small molecule may comprise a glucocorticoid such as triamcinolone acetonide having a molecular weight of about 435.

[8] = tested on: Grade IV choroidal neovascularization (CNV) lesions; details: intravitreal injection, all doses tested, cynomolgus monkeys; cited from earlier work
[9] = rabbit and monkey, cited from earlier work

For `O=C(c1ccccc1)c1ccc2n1CCC2C(=O)O` (stereo not drawn) [ketorolac], the “Half-life” value [1] is listed as 3 h, the Diffusion coeff [2] is listed as 5.0E−06 cm2/s and the “IC50 (ug/ml) (Inhibitory Level)*” value (COX) is listed as 0.007 µg/mL (≈ 0.0274 µM). For the same molecule, the “Rate constant, k” value [3] was 5.545 day⁻¹.
In the case of `Nc1c(CC(=O)O)cccc1C(=O)c1ccc(Br)cc1` [bromfenac], the “IC50 (ug/ml) (Inhibitory Level)*” value (COX) is given as 0.0025 µg/mL (≈ 0.00748 µM).
In the case of `C[C@]12C=CC(=O)C=C1CC[C@H]1[C@@H]3C[C@@H](O)[C@](O)(C(=O)CO)[C@@]3(C)C[C@H](O)[C@@]12F` [triamcinolone], the IC50 [4] is given as about 1.5 nM.
In the case of `Cc1ccc(-c2cc(C(F)(F)F)nn2-c2ccc(S(N)(=O)=O)cc2)cc1` [celecoxib], the Solubility in water [5] is listed as “approximately 3 ug/ml”.
For ranibizumab [Lucentis™], the “Half-life in the vitreous” value [6] is given as 220 h, the Diffusion coeff [7] is given as 1.0E−06 cm2/s and the “Development of Grade IV CNV lesions” value [8] is given as “completely inhibited”. For the same molecule, the “Half-life in the vitreous” value [9] was “two to four” and the “Half-life in the vitreous” value ([9]; listed as ranibizumab) was “approximately 3 days”.
